Assay results as given in patent US9670487B2, “Cationic lipids for oligonucleotide delivery” (SIRNA THERAPEUTICS, INC., priority 2010, dated 2017).

Key:
[1] = tested on: mRNA transcript for the firefly (Photinus pyralis) luciferase gene; experiment: In vivo efficacy in luciferase mouse model (LNP/RDV with Luc siRNA); settings: for inhibition at 0.3 mg/kg: Mus musculus, LNPs prepared from the compound with Luc siRNA, 0.3 mg Kg^-1, tail vein, imaged 48 hours post dose, relative to pre-dose luminescence, read-out: Average % Inhibition of Bioluminescence
Description: LNPs utilizing the compounds of the instant invention, in the nominal compositions described immediately above, were evaluated for in vivo efficacy and induction of inflammatory cytokines in a luciferase mouse model. The siRNA targets the mRNA transcript for the firefly (Photinus pyralis) luciferase gene (Accession # M15077). […] The in vivo luciferase model employs a transgenic mouse in which the firefly luciferase coding sequence is present in all cells. ROSA26-LoxP-Stop-LoxP-Luc (LSL-Luc) transgenic mice licensed from the Dana Farber Cancer Institute are induced to express the Luciferase gene by first removing the LSL sequence with a recombinant Ad-Cre virus (Vector Biolabs). Due to the organo-tropic nature of the virus, expression is limited to the liver when delivered via tail vein injection. Luciferase expression levels in liver are quantitated by measuring light output, using an IVIS imager (Xenogen) following administration of the luciferin substrate (Caliper Life Sciences). Pre-dose luminescence levels are measured prior to administration of the RDVs. Luciferin in PBS (15 mg/mL) is intraperitoneally (IP) injected in a volume of 150 uL. After a four minute incubation period mice are anesthetized with isoflurane and placed in the IVIS imager. The RDVs (containing siRNA) in PBS vehicle were tail vein injected n a volume of 0.2 mL. Final dose levels ranged from 0.3 to 3 mg/kg siRNA. PBS vehicle alone was dosed as a control. Three hours post dose, mice were bled retro-orbitally to obtain plasma for cytokine analysis. Mice were imaged 48 hours post dose using the method described above. Changes in luciferin light output directly correlate with luciferase mRNA levels and represent an indirect measure of luciferase siRNA activity. In vivo efficacy results are expressed as % inhibition of luminescence relative to pre-dose luminescence levels. Plasma cytokine levels were determined using the SearchLight multiplexed cytokine chemiluminescent array (Pierce/Thermo). Systemic administration of the luciferase siRNA RDVs decreased luciferase expression in a dose dependant manner. […]

[2] = Rat in vivo tolerability: serum ALT and AST after LNP dosing; settings: Sprague-Dawley female rats; RDV with ApoB siRNA; tail vein; 24 hours after dosing; FIG. 4
Description: Six hours post dose, food is removed from the cages. Animal necropsy is performed 24 hours after LNP dosing. Rats are anesthetized under isoflurane for 5 minutes, then maintained under anesthesia by placing them in nose cones continuing the delivery of isoflurane until ex-sanguination is completed. Blood is collected from the vena cava using a 23 gauge butterfly venipuncture set and aliquoted to serum separator vacutainers for serum chemistry analysis. Punches of the excised caudate liver lobe are taken and placed in RNALater (Ambion) for mRNA analysis. Preserved liver tissue was homogenized and total RNA isolated using a Qiagen bead mill and the Qiagen miRNA-Easy RNA isolation kit following the manufacturer's instructions. Liver ApoB mRNA levels were determined by quantitative RT-PCR. Message was amplified from purified RNA utilizing a rat ApoB commercial probe set (Applied Biosystems Cat # RN01499054_ml). The PCR reaction was performed on an ABI 7500 instrument with a 96-well Fast Block. The ApoB mRNA level is normalized to the housekeeping PPIB (NM 011149) mRNA. PPIB mRNA levels were determined by RT-PCR using a commercial probe set (Applied Biosystems Cat. No. Mm00478295_ml). Results are expressed as a ratio of ApoB mRNA/PPIB mRNA. All mRNA data is expressed relative to the PBS control dose. […]

[3] = tested on: mRNA transcript for the ApoB gene; experiment: Rhesus monkey in vivo efficacy: serum LDL-C as surrogate marker of ApoB mRNA reduction; design: species or system Macaca mulatta (rhesus) monkeys; settings: RDVs containing the compound and ApoB siRNA; 1 mg/kilogram siRNA intravenous; 2-12 days post administration; FIG. 6
Description: LNPs utilizing compound 34 in the nominal compositions described above, were evaluated for in vivo efficacy in male or female Macaca mulatta (rhesus) monkeys. The siRNA targets the mRNA transcript for the ApoB gene (Accession # XM 001097404). […] The RDVs (containing siRNA) in PBS vehicle were administered by intravenous injection in the saphenous vein at an injection rate of 20 mL/minute to a dose level of 1 mg/kilogram siRNA. The injection volumes were from 1.9 to 2.1 mL/kilogram and monkeys ranged in weight from 2.5 to 4.5 kilograms. The RDV or PBS control were administered to three monkeys. At multiple days post dose, 1 mL blood samples were drawn from the femoral artery for serum chemistry analysis. Monkeys were fasted overnight prior to blood draws. As a measure of efficacy, LDL-C was monitored as a downstream surrogate marker of ApoB mRNA reduction. At 2-12 days post systemic administration of RDVs containing compound 34, serum levels of LDL-C were reduced to less than 30% of pre-dose levels (FIG. 6).

CCCCC/C=C\C/C=C\CCCCCCCCOC(CN(C)C)OCCCCCCCC/C=C\C/C=C\CCCCC [Compound 2, N,N-dimethyl-2,2-bis[(9Z,12Z)-octadeca-9,12-dien-1-yloxy]ethanamine]
inhibition at 0.3 mg/kg [1]: 64% | Efficacy compared with RDV containing octyl-CLinDMA cationic lipid, Compound 4 ([1]; mice dosed with RDVs containing the compound and Luc siRNA, Table 1): Greater efficacy

CCCCC/C=C\C/C=C\CCCCCCCCOCC(CN(C)C)OCCCCCCCCO[C@H]1CC[C@@]2(C)C(=CC[C@H]3[C@@H]4CC[C@H]([C@H](C)CCCC(C)C)[C@@]4(C)CC[C@@H]32)C1 (some centres unmarked) [Compound 4, S-Octyl CLinDMA, reference compound]
inhibition at 0.3 mg/kg [1]: 55%

CCCCC/C=C\C/C=C\CCCCCCCCOC(CN(C)C)OCCCCCCCC (centres unmarked) [Compound 31, N,N-dimethyl-2-[(9Z,12Z)-octadeca-9,12-dien-1-yloxy]-2-(octyloxy)ethanamine]
Tolerability (serum ALT and AST) compared with RDV containing DLinKC2DMA cationic lipid 64 [2]: better tolerability

CCC/C=C\CCCCCCCOC(CN1CCCC1)OCCCCCCCC/C=C\C/C=C\CCCCC (centres unmarked) [Compound 34, 1-{2-[(8Z)-dodec-8-en-1-yloxy]-2-[(9Z,12Z)-octadeca-9,12-dien-1-yloxy]ethyl}pyrrolidine]
Serum levels of LDL-C [3]: less than 30 % of pre-dose levels
